In general, Ki refers to the dissociation constant of the complex between target and ligand, obtained from inhibition or displacement. A lower Ki goes with a stronger hold on the target. By IC50 is commonly meant the midpoint of a concentration-inhibition curve.

Experimental findings from ChEMBL document CHEMBL2346626, “PF-04859989 as a template for structure-based drug design: identification of new pyrazole series of irreversible KAT II inhibitors with improved lipophilic efficiency” (Bioorg Med Chem Lett, 2013) are described below.

Data set [1] addresses T1, Kynurenine/alpha-aminoadipate aminotransferase, mitochondrial (Homo sapiens, UniProt Q8N5Z0). Kind of data set: Ratio of Kinact to Ki for inhibition of human KAT2.
Target sequence in this assay (Q8N5Z0 30-425 limits assumed): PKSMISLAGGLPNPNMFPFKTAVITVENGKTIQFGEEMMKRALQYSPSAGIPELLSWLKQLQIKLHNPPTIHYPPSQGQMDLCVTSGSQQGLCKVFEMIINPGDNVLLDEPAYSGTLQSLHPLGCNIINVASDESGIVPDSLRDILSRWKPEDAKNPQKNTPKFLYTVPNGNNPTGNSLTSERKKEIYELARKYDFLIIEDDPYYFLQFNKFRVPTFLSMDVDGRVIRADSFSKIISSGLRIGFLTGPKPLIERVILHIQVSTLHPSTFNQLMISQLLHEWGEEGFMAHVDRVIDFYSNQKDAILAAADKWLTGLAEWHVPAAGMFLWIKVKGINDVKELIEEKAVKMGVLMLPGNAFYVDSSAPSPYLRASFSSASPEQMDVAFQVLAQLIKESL
Data set [2] concerns the target T1, Kynurenine/alpha-aminoadipate aminotransferase, mitochondrial. In words: Inhibition of human KAT2 using L-kynurenine as substrate after 15 to 20 hrs by UV-visible spectra analysis.
Target sequence in this assay (Q8N5Z0 whole entry): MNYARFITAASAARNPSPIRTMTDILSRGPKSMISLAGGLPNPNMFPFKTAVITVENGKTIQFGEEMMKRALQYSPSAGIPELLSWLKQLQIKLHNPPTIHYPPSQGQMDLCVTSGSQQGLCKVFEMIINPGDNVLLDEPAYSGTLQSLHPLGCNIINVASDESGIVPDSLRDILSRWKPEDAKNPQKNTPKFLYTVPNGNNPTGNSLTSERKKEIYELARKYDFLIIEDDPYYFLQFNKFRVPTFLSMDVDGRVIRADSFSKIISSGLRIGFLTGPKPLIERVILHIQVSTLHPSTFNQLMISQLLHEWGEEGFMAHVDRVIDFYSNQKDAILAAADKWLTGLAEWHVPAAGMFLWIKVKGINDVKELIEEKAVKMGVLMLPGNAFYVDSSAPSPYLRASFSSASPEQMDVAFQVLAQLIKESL
For data set [3] the target is unchanged. Kind of data set: Inhibition of human KAT2 using L-kynurenine as substrate measured every 5 mins for 16 hours by UV-visible spectra analysis.
Target sequence in this assay (Q8N5Z0 30-425 limits assumed): as the sequence (Q8N5Z0 30-425 limits assumed) above
The nature of data set [4]: Intrinsic apparent clearance in human liver microsomes. The class given is ADME, Microsome. As to conditions: read-out: CLH(app).

Turning to `Cn1nc(Cc2ccccc2)c2c1N(O)C(=O)[C@@H](N)C2`, in data set [1], the Ratio was found to be 16000 M⁻¹ s⁻¹. This compound also displayed a Ki in data set [2] of 32 nM. The compound also displayed a Kinact in data set [3] of 0.0349 min⁻¹.
`COc1cc2c(cc1Cc1ccccc1)C[C@H](N)C(=O)N2O`: the Ratio in data set [1] came out at 129000 M⁻¹ s⁻¹. Also, in data set [2], it took 37 nM to reach half-maximal inhibition (IC50) and the Ki came to 1.6 nM. For the same compound, the microsomal CLint in data set [4] is 26 µL/min/mg. The compound also had a Kinact in data set [3] of 0.0146 min⁻¹.
With `COc1cccc(Cc2nn(C)c3c2C[C@H](N)C(=O)N3O)c1`, the Ratio in data set [1] turned out to be 8710 M⁻¹ s⁻¹. Further, in data set [2], the Ki amounted to 22 nM. The Kinact in data set [3] is 0.0116 min⁻¹.
In the case of `N[C@H]1Cc2cn(-c3ccccc3)nc2N(O)C1=O`, the Ratio in data set [1] came to 112000 M⁻¹ s⁻¹. In data set [2], 25 nM corresponded to half-maximal inhibition (IC50) and affinity was put at a Ki of 1.9 nM. The microsomal CLint in data set [4] was below 8 µL/min/mg. This compound showed a Kinact in data set [3] of 0.0125 min⁻¹.
As to `N[C@H]1Cc2c(c(C(F)(F)F)nn2Cc2ccccc2)N(O)C1=O`, the Ratio in data set [1] turned out to be 7920 M⁻¹ s⁻¹. Also, in data set [2], the IC50 is 74 nM and the affinity corresponds to a Ki of 48 nM. This compound showed a Kinact in data set [3] of 0.0227 min⁻¹.
For `N[C@H]1Cc2nn(-c3ccccc3)cc2N(O)C1=O` the same measures were 8580 M⁻¹ s⁻¹, 85 nM, 41 nM and 0.0144 min⁻¹.
`N[C@H]1Cc2ccccc2N(O)C1=O`: in data set [2], the affinity, expressed as Ki, was 14 nM.
With `N[C@H]1Cc2c(cnn2Cc2ccccc2)N(O)C1=O`, in data set [1], the Ratio was 16200 M⁻¹ s⁻¹. In data set [2], this compound came in with a Ki of 12 nM. The same compound registered a Kinact in data set [3] of 0.0116 min⁻¹.
On to `N[C@H]1Cc2cn(Cc3ccccc3)nc2N(O)C1=O`, for which the Ratio in data set [1] stood at 10500 M⁻¹ s⁻¹. In data set [2], this compound gave an IC50 of 47 nM and a Ki of 23 nM. This compound returned a Kinact in data set [3] of 0.0147 min⁻¹.
